Data from article PMC5008840, “α-Mangostin Extraction from the Native Mangosteen (Garcinia mangostana L.) and the Binding Mechanisms of α-Mangostin to HSA or TRF” (PLoS ONE, 2016).

Legend:
[1] = target: T1, human serum albumin (HSA) (Homo sapiens, UniProt P02768); test: intrinsic fluorescence quenching titration; type: binding; settings: 298 K; 0.1 M Tris-HCl pH 7.3, 0.1 M NaCl; 10 μM protein; excitation 282 nm; n = 1.15; double-log
T1 construct: gene ALB; mature protein, 585 residues, 17 disulfide bonds, about 67 kD
From the text: intrinsic fluorescence quenching titration on human serum albumin (HSA)

human transferrin (TRF) = target: T2, human transferrin (TRF) (Homo sapiens, UniProt P02787); test: intrinsic fluorescence quenching titration; type: binding; settings: 298 K; 0.1 M Tris-HCl pH 7.3, 0.1 M NaCl; 10 μM protein; excitation 282 nm; n = 1.09; double-log
T2 construct: gene TF; mature glycoprotein, 679 residues, 19 disulfide bonds, about 77 kD
From the text: intrinsic fluorescence quenching titration on human transferrin (TRF)

T1 sequence (P02768 25-609): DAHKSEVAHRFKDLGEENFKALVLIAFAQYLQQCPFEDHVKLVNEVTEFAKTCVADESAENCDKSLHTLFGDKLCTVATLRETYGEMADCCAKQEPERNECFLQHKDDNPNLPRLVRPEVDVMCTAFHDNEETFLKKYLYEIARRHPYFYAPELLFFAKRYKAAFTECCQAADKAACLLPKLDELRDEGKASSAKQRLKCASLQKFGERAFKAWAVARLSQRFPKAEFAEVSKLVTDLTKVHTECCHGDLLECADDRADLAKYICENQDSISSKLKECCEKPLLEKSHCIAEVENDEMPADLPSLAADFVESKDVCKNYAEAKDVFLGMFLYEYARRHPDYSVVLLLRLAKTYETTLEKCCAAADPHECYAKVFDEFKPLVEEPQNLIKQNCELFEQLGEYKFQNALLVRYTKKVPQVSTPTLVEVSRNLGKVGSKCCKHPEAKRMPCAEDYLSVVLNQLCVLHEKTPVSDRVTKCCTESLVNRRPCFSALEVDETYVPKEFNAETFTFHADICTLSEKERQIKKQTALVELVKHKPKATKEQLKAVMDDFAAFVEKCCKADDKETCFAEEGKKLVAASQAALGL
T2 sequence (P02787 20-698): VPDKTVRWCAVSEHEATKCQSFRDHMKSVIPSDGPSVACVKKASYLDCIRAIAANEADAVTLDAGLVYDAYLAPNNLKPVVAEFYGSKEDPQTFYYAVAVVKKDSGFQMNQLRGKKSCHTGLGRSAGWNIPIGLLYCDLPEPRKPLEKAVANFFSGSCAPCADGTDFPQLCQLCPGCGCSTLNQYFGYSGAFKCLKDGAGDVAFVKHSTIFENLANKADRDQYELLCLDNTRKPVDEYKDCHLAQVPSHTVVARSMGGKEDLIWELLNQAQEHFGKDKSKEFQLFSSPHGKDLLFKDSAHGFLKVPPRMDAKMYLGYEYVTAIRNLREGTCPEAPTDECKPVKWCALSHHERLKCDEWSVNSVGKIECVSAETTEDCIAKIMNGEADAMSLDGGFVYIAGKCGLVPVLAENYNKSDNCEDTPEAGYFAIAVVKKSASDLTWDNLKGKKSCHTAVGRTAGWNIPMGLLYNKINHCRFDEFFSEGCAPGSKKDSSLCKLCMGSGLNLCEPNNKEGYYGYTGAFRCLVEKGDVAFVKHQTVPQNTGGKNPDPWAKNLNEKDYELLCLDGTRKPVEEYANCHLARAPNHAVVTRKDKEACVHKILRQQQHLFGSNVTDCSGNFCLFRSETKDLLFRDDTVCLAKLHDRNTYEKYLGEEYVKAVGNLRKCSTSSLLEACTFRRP

COc1c(O)cc2oc3cc(O)c(CC=C(C)C)c(O)c3c(=O)c2c1CC=C(C)C [α-mangostin, 1,3,6-trihydroxy-7-methoxy-2,8-bis(3-methyl-2-butenyl)-9H-xanthen-9-one]
K [1]: 648320 L/mol | K (human transferrin (TRF)): 146520 L/mol
